Results: patent publication US20050136536A1, “Embryonic epithelial cells” (priority 2003, published 2005)

System: cytokeratin 7
Assay: differentiation of hES cells on gelatin-coated glass slides, cytokeratin 7 staining
Assay type: cell-based, human
Conditions: 300 nM AM580, serum medium, stained after 6 or 8 days
Method: H9 cells (Thomson, J. A., et al., “Embryonic stem cells lines derived from human blastocysts”, Science 282, 1145-1147 (1998)) were grown as described in Spradling, A., et al., “Stem cells find their niche”, Nature 414, 98-104 (2001), the entire contents of which are incorporated herein by reference. C2C12 cells were grown as described in Yaffee, D. & Saxel, O., “Serial passaging and differentiation of myogenic cells isolated from dystrophic mouse muscle”, Nature 270, 725-7 (1977). Specifically, hES cells (H9 clone) were grown on mouse embryo fibroblasts (Cell Essential) in KnockOut Medium (Gibco-BRL, Gaithersburg, Md.), a modified version of Dulbeco's modified Eagle's medium optimized for ES cells (Itskovitz-Eldor, et. al., (2000) Mol. Med. 6, 88-95, the contents of which are incorporated herein by reference). Tissue cover plates were covered with 0.1% gelatin (Sigma). Culture were grown in 5% CO2 and were routinely passaged every 5-6 days after disaggregating with 1 mg/ml collagenase type IV (Gibco-BRL). To induce formation of EBs, hES colonies were digested using either 1 mg/ml collagenase type IV or trypsin/EDTA (0.1%/1 mM) and transferred to petri dishes to allow their aggregation and prevent adherence to the plate. […]

Question: How did the “development of cytokeratin 7-positive cells” value turn out when `CC1(C)CCC(C)(C)c2cc(C(=O)Nc3ccc(C(=O)O)cc3)ccc21` [AM580] was run?
Answer: increases the development of cytokeratin 7-positive cells
